{
  "source": "patent US5739274A",
  "about": "“Active component of parathyroid hypertensive factor” (CV Technologies, Inc., priority 1995, dated 1998)",
  "key": {"SD rats": {"tested_on": "SD rats", "assay": "Blood pressure bioassay, bolus injection into anesthetized normotensive SD rats", "type": "in vivo", "conditions": "normotensive rat, as in Example 1", "method": "SD rats were anesthetized using Na pentobarbital, (50 mg/kg, i.p.) and catheters were inserted in the jugular vein for injection of plasma and drugs and in the carotid artery for measurement of b.p.\nThe chloroform methanol extract of SHR plasma was redissolved in saline and administered by bolus injection."}, "Na+ K+ ATPase": {"tested_on": "Na+ K+ ATPase", "assay": "Na+ K+ ATPase activity as ouabain-sensitive 86Rb uptake in rat tail artery", "type": "cell-based", "method": "Na^+ K^+ ATPase activity was measured as the ouabain-sensitive ^86 Rb uptake in rat tail artery using the method of Deth et al. Briefly, male Sprague-Dawley rats weighing 300 to 400 g were sacrificed by pentobarbital overdose, and the tail arteries removed and cut into strips. The strips were rinsed in ice-cold Krebs solution (composition: NaCl, 117 mM; KCl, 5 mM; NaHCO3, 27 mM, NaH2 PO4, 1 mM, MgSO4, 1.2 mM, CaCl2, 1.25 mM, glucose 11.0 mM) and incubated in oxygenated (95% O2, 5% CO2) Krebs buffer at 37° C. for 2 hours. For the final 30 minutes, Krebs solution with no KCl and 122 mM NaCl was used to sodium-load the tissues. Following this incubation, the strips were transferred to tubes containing Krebs buffer and 1 μCi of ^86 Rb, giving a final […] concentration of 5 mM. Various incubation media consisting of the above-described incubation solution plus 30% SHR plasma (Rb concentration kept constant in all cases) plus 1 mM ouabain and incubation plus 30% plasma plus 1 mM ouabain. Strips were incubated in the respective solutions for 18 minutes, then rinsed in four changes of ice-cold Krebs solution, blotted, weighed and counted in a gamma counter. The effect of the various incubations on ^86 Rb uptake was analyzed by ANOVA using the Student-Neuman-Keuuls test for post-hoc comparisons. All results are expressed as mean±SD."}, "rat tail artery": {"tested_on": "rat tail artery", "assay": "Blood vessel tension measurement, norepinephrine-induced tension in helical strips", "type": "cell-based", "conditions": "40 mins incubation before second NE doses", "method": "The method was essentially similar to the one described by Pang, et al. (1980). Sprague-Dawley rats of either sex were anesthetized with pentobarbital (50 mg/kg) and the tail artery or aorta were isolated and removed and then placed in KHS buffer (115 mM NaCl, 5 mM KCl, 2.1 mM CaCl2, 1.2 mM MgSO4, 1.2 mM NaH2 PO4, 25 mM NaHCO3, and 11 mM glucose) oxygenated with 95% O2, 5% CO2. The vessels were cut helically and strips of approximately 1.5 cm were secured in a Sawyer-Bartlestone chamber containing KHS. The force development of the helical strips was measured with a Grass FT 0.03 force displacement transducer and recorded on a Grass Model 79D polygraph. Isolated tail artery helical strips were equilibrated for 1 hour prior to addition of any vasoconstricting agents. The strips were preloaded with a resting tension of 0.7 g and incubated at 37° C. (Pang et al., 1985). In all cases, the responsiveness of strips was first tested by adding 60 mM KCl and only responsive tissue was used in experiments. There were two series of experiments.\nTwo consecutive dose responses to NE in tension development with 1 hour interval were compared. The tissue was washed out after adding first accumulated doses of NE and incubated in normal KHS buffer for 20 mins. The control solvent or testing substances (PHF or LP compounds) were then applied and incubated for another 40 mins. […]"}, "L-type Ca2+ channel": {"biological_target": "T1, L-type Ca2+ channel (Rattus norvegicus, UniProt P22002)", "T1 construct": "single VSMC isolated form rat tail artery by using the whole cell version of the patch clamp technique; endogenous in cells; host or cells: freshly isolated vascular smooth muscle cells of rat tail artery", "T1 sequence (P22002 whole entry)": "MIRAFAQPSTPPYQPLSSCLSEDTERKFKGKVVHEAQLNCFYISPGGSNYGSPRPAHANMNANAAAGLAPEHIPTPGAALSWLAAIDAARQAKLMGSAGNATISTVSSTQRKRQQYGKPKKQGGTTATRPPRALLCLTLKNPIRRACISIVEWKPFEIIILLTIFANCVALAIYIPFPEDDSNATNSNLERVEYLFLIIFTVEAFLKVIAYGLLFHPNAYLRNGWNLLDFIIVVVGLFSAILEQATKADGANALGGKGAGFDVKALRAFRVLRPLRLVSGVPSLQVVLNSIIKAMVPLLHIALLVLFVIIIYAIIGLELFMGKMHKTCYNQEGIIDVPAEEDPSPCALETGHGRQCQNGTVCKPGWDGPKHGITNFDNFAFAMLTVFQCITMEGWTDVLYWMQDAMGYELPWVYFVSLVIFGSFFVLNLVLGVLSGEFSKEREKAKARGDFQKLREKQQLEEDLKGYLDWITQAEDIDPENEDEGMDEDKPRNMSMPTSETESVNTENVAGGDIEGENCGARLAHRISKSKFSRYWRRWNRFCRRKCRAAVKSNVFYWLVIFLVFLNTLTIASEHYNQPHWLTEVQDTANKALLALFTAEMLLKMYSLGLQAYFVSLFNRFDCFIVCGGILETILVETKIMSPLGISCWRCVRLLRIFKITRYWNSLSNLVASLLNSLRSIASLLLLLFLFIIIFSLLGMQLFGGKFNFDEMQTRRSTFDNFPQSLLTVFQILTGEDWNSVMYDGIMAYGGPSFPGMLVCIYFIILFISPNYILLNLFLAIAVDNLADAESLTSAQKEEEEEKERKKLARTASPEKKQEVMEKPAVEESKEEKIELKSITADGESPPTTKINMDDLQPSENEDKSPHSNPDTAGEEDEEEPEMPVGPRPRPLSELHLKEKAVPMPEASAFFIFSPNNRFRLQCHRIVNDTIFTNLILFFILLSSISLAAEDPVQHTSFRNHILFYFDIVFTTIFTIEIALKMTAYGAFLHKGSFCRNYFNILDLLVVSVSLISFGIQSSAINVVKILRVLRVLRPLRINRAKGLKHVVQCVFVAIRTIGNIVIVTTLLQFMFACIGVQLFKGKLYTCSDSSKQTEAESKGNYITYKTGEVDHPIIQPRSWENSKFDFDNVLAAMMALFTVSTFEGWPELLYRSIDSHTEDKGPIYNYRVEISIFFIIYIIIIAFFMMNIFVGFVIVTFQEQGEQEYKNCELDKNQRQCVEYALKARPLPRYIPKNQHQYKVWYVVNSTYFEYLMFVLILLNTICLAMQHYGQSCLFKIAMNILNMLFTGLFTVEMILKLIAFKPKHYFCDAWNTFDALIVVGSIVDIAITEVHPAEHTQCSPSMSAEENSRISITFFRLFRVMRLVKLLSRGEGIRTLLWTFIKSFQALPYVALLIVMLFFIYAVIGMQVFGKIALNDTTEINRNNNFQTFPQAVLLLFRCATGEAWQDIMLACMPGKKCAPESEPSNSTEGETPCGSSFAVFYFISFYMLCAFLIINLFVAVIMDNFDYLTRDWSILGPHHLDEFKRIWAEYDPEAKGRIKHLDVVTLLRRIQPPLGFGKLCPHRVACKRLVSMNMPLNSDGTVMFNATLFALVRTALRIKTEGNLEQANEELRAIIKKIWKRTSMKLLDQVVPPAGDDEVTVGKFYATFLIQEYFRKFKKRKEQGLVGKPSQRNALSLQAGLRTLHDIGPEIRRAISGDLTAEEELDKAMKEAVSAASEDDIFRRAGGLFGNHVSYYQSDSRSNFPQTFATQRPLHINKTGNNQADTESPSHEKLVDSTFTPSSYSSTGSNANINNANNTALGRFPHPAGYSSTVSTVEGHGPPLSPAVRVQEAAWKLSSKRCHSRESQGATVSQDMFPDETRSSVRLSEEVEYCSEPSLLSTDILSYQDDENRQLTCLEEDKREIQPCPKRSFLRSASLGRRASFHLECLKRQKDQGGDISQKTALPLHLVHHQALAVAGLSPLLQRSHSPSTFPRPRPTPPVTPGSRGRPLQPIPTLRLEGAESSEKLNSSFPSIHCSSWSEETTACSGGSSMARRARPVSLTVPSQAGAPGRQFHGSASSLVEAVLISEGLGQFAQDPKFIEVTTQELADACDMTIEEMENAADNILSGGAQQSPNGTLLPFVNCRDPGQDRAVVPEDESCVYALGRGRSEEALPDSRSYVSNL", "T1 sequence (P54290 25-944 partner limits assumed)": "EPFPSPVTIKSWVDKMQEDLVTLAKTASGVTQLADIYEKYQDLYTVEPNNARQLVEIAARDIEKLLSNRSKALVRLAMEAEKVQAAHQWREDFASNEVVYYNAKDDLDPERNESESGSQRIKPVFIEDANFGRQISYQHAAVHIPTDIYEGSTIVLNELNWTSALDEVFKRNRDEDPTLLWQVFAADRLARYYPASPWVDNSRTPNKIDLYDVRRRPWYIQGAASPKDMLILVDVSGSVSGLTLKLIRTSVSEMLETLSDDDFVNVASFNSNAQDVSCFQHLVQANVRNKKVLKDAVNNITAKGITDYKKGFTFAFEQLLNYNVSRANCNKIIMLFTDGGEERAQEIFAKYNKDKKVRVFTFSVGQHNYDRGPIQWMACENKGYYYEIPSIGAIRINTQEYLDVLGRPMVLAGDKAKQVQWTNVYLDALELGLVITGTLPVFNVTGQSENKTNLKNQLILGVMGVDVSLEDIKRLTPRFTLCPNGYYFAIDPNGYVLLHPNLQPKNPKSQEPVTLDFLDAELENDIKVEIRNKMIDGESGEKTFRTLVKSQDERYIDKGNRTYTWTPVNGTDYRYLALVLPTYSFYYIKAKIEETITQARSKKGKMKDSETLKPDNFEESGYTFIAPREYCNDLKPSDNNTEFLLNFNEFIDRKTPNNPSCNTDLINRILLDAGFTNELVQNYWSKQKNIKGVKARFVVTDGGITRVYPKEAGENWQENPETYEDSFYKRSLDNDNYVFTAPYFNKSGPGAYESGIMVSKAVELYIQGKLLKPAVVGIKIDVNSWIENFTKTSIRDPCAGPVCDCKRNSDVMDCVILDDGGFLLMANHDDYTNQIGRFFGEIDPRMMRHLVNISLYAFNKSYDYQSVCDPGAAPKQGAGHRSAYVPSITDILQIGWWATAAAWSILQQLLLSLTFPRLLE", "T1 sequence (P54290 945-1091 partner limits assumed)": "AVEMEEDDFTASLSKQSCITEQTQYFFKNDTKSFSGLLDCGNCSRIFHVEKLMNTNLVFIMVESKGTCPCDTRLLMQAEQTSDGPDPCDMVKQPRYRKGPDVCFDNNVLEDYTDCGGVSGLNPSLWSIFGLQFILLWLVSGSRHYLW", "T1 sequence (P54287 whole entry partner)": "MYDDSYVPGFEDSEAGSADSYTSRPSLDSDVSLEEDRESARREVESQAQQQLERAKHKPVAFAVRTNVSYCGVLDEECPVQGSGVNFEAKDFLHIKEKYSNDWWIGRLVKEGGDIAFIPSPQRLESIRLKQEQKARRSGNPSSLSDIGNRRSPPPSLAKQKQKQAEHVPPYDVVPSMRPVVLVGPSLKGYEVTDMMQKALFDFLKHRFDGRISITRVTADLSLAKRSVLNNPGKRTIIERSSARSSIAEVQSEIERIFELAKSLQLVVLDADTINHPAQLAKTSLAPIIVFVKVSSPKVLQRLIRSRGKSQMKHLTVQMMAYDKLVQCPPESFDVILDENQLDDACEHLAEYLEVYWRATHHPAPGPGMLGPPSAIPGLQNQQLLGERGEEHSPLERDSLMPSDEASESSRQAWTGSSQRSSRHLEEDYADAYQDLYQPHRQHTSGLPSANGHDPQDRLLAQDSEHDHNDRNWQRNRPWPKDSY", "assay": "Ca2+ channel study, whole cell patch clamp in single VSMC", "type": "cell-based", "conditions": "IBMX applied after FMOC-PHF", "method": "Ca^2+ channel activity was determined in single VSMC isolated form rat tail artery by using the whole cell version of the patch clamp technique (Hamill et al., 1981). Whole cell Ca^2+ current measurements were carried out by using an Axopatch-1B patch clamp amplifier (Axon Instruments). Patch micropipettes were pulled from borosilicate thin wall glass capillary tubes (OD 1.2 mm, ID 0.9 mm, FHS, Brunswick, Maine, USA) with a two stage micropipette puller (Narishige, PP83, Japan). The micropipettes were fire polished using a microforge (Leitz, Wetzlar, Germany). The tip diameter was approximately 1 μm with a resistance of 2-8 Mega Ohms. The cell attached to the bottom of a 3 cm Petri dish and was bathed in the medium containing 110 mM Tris, 5 mM CsCl, 20 mM HEPES, 30 mM glucose, 20 mM BaCl2, and 0.5 μM TTX. The polished pipette filled with a solution containing 75 mM Cs2 -aspartate, 10 mM EGTA, 2 mM ATP, 5 mM MgCl2, 5 mM K-pyruvate, 5 mM K-succinate, 25 mM glucose, 15 mM HEPES, 5 mM creatine phosphate-Na2, and 50 units/ml creatine kinase was placed against the cell membrane using a Narishige hydraulic micromanipulator. Gentle suction was applied via a tubing attached to the pipette holder. […] The currents were monitored using a digital oscilloscope (Nicolet Instrument Co., Madison, Wis., U.S.A.) and filtered at 3 KHz with a low pass filter (Axon Instruments, Foster City, Calif., U.S.A.). […]"}, "[1]": {"tested_on": "CaM (calmodulin)-Dependent PDE", "assay": "Activation of CaM-dependent PDE (cGMP-PDE activity)", "type": "biochemical", "method": "The measurement of cGMP-PDE activity is based on the conversion of [^3 H]cGMP into [^3 H]GMP and its subsequent hydrolysis by snake venom into [^3 H]Guanosine (Wallace, et al., 1983; Wells, et al., 1975). The testing substance was added to a mixture containing 60 mM TES, 3 mM MgCl2, 0.8 mg/ml BSA, 25 μM EGTA, 50 uM CaCl2, 1 mM DTT, 0.5 μM cGMP and [^3 H]-cGMP (10-15×10^3 cpm) at a final pH of 7.5 for a total volume of 200 μl. The reaction was started by the addition of a fixed quantity of CaM-deficient PDE (Sigma Chemical Co., St. Louis, Mo.). Incubation carried out for 15 mins at 30° C., was terminated by boiling for 5 mins. The second reaction was initiated by the addition of 20 μl (10 mg/ml) of snake venom (Crotalus atrox). After 10 mins., the incubation was stopped with 700 μl of a second termination medium containing 0.1 mM guanosine. The total incubation mixture was then applied onto a column of QAE-Sephadex A-25 (formate form) to separate labeled nucleotides from the labeled nucleosides formed. The resin was eluted with 4 ml of 20 mM ammonium formate (pH 6.5), and the radioactivity of the eluate containing [^3 H]guanosine was determined in a liquid scintillation counter. A standard curve of PDE stimulation by CaM was obtained by the addition of different concentrations of purified bovine heart CaM (Sigma) (0.1-200 ng/tube). […]"}, "[2]": {"tested_on": "vascular smooth muscle cells isolated from rat tail artery", "assay": "Intracellular calcium determination (fura-2)", "type": "cell-based", "conditions": "45 mins incubation before KCl; 30 mM KCl for pure PHF, 15 mM KCl for FMOC-PHF", "method": "All studies were performed in vascular smooth muscle cells isolated from Sprague Dawley (SD) rat tail artery as described in Wang, et al. (Wang, et al. 1989) with modification. Male SD rats (100-200 g body weight) were anaesthetized with sodium pentobarbital (65 mg/kg body weight intraperitoneally) and the tail artery dissected out and immersed in cold Ca and Mg free Hanks' balanced salt solution (HBSS, Gibco). The blood was washed off from the artery and the connective tissue was then removed. Using a dissecting microscope inside a laminar flow hood, the artery was cut into pieces of about 1.5 cm and placed in 4° C. Ca free HBSS for 30 minutes. […]\nPrimary cultured vascular smooth muscle cells were incubated for 45 minutes in DMEM containing 5 μM fura-2 acetoxymethyl ester (Molecular Probes, INC.) at room temperature. […] After about 5 min, the coverslip with attached cells was placed in a Sykes-Moore chamber of 1-ml volume on the stage of an inverted microscope, and fluorescence measurements were made with a Fluoroplex III sepctrofluorometer (Tracor Northern). […] R is the ratio of fluorescence in the sample excited at […] which represents intracellular free calcium concentration. […]\nThe monolayer cells in 1 mM Ca^2+ 5K buffer were challenged by testing substances and the change of R was recorded for a certain period of time. […]"}},
  "data": [
    {"compound": "Lysophosphatidyl inositol", "values": [
      {"measurement": "hypertensive response (blood pressure in normotensive rats)", "setting": "SD rats", "result": "delayed, sustained increase in blood pressure"},
      {"measurement": "increase in 86Rb uptake", "setting": "Na+ K+ ATPase; 600 micromolar, p<0.05", "result": 31, "unit": "%"},
      {"measurement": "effect on norepinephrine induced tension development", "setting": "rat tail artery", "result": "potentiations of norepinephrine induced tension"}
    ]},
    {"compound": "CC(C)Cn1c(=O)n(C)c(=O)c2[nH]cnc21", "note": "[IBMX]", "values": [
      {"measurement": "effect on calcium channel current increased by FMOC-PHF", "setting": "L-type Ca2+ channel", "result": "reversal"}
    ]},
    {"compound": "Lysophosphatidyl serine", "values": [
      {"measurement": "hypertensive response (blood pressure in normotensive rats)", "setting": "SD rats", "result": "delayed sustained increase in blood pressure"},
      {"measurement": "increase in 86Rb uptake", "setting": "Na+ K+ ATPase; 30 micromolar, p<0.01", "result": 46, "unit": "%"},
      {"measurement": "effect on phosphodiesterase (PDE) activity", "setting": "[1]", "result": "stimulated PDE activity"}
    ]},
    {"compound": "lysophosphatidyl choline [LPC]", "values": [
      {"measurement": "effect on intracellular calcium ([Ca2+]i increment induced by KCl)", "setting": "[2]", "result": "significantly augments the increase in intracellular calcium induced by KCl"}
    ]}
  ]
}
